Earlier results on 1 compound are cited in patent publication US20250049902A1, “Method of Developing a Peptide-Based Vaccine Conjugated with 1V209” (VERSITECH LIMITED, priority 2021, published 2025).

The subject of data set [1] is antigen specific immune responses. As to conditions: small molecule simply mixed with antigens, ref [3].
The next data set deals with TLR7 pathway. The following applies: reported, ref [3].

On to `COCCOc1nc(N)c2[nH]c(=O)n(Cc3ccc(C(=O)O)cc3)c2n1` [1V209, 4-[[6-Amino-7,8-dihydro-2-(2-methoxyethoxy)-8-oxo-9H-purin-9-yl]methyl]-benzoic acid], for which, in data set [1], the “induction of antigen specific immune responses” value was “can hardly induce antigen specific immune responses”. The TLR7 pathway stimulation result in the data set on TLR7 pathway is recorded as “can stimulate the TLR7 pathway as an agonist”.
